Measured values taken from US11505575B2, “Cyclic polypeptides for PCSK9 inhibition” (Merck Sharp & Dohme LLC, priority 2018, dated 2022).
*1 amine or outer side, *2 acyl side, *3 side chain or, on linkers, in order; H or OH if unused. Where a SMILES comes first, the peptide text is derived from it. Bridges are numbered along the chain shown (N, C = ends). [ ]: non-standard residue; d: D form. The star is where a group is joined. ξ: configuration not given here. αMeNva(5-ylidene) = C[C@@](CCC=[*:3])(N[*:1])C(=O)[*:2]; Trp(βS-Me) = C[C@@H](c1c[nH]c2ccccc12)[C@H](N)C(=O)O; Phe(4-guanidino) = N=C(N)Nc1ccc(C[C@H](N)C(=O)O)cc1; X4 = O=C([C@H](Cc1cc2cc(F)ccc2[nH]1)N[*:1])[*:2]; X3 = N=C(N)NCc1ccc(C[C@H](N[*:1])C(=O)[*:2])cc1; Trp(7-aza) = N[C@@H](Cc1c[nH]c2ncccc12)C(=O)O; Phe(4-CH2NH2) = NCc1ccc(C[C@H](N)C(=O)O)cc1; X1 = C[C@@](CCCCC=[*:3])(N[*:1])C(=O)[*:2]; mXylylene = c1cc(C[*:1])cc(C[*:2])c1; Aad = N[C@@H](CCCC(=O)O)C(=O)O; Agp = N=C(N)NC[C@H](N)C(=O)O; Chg = N[C@H](C(=O)O)C1CCCCC1; Tle = CC(C)(C)[C@H](N)C(=O)O; αMeV = CC(C)[C@](C)(N)C(=O)O; αMeS = C[C@](N)(CO)C(=O)O; Api = NC1(C(=O)O)CCNCC1; Nva = CCC[C@H](N)C(=O)O; ξαMeS = CC(N)(CO)C(=O)O; Aib = CC(C)(N)C(=O)O; Mpa = O=C(O)CCS; X5 = COCC*

Experiments:
Type in all cases: binding
[1] = target: T1, PCSK9 (Homo sapiens, UniProt Q8NBP7); assay: PCSK9 Alexa FRET Plus assay (displacement of AlexaFluor647-tagged cyclic peptide Reagent B); conditions: 0.5 nM PCSK9, 960 nM AF cyclic peptide Reagent B
T1 construct: biotin (biotinylated)
T1 sequence (Q8NBP7 153-692): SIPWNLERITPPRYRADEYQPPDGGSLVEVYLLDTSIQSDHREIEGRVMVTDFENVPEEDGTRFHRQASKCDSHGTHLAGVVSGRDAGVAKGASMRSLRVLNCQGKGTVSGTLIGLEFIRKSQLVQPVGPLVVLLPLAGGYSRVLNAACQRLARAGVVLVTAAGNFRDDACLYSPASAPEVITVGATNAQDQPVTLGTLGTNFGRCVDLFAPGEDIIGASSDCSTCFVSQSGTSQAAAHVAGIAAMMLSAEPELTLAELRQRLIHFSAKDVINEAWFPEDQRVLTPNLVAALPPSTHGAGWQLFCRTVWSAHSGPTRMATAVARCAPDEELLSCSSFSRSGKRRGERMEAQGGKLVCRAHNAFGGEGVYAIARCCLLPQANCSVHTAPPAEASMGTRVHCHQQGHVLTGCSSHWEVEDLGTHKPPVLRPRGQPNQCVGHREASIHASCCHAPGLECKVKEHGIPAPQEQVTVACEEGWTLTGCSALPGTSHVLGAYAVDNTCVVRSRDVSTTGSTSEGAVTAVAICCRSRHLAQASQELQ
Experimental: A solution containing 1 nM biotinylated PCSK9+2.5 nM Lance Streptavidin Europium (Strep-Eu) was made in 50 mM HEPES pH 7.4, 0.15 M NaCl, 5 mM CaCl2, 0.01% BSA, and 0.01% Surfactant P20. A separate solution containing 1920 nM of the AlexaFluor tagged cyclic peptide was made in the same buffer system. An Echo was used to transfer 0.075 ul of compound plus 0.675 ul of DMSO to each well of an assay plate followed by the addition of 15 ul of PCSK9+Stept-Eu and 15 ul of AF peptide. The final assay volume was 30.750 ul containing 0.5 nM PCSK9, 1.25 nM Strep-Eu, and 960 nM AF cyclic peptide. The reaction was incubated at room temperature for at least two hours prior to fluorescence measurements using an Envision Multilabel Reader. IC50 values were determined by fitting data to a sigmoidal dose-response curve using nonlinear regression. Ki was then calculated from the IC50 and the KD of AF cyclic peptide. Counts (B-counts) of the europium-labeled PCSK9 were followed to observe if compounds were adversely affecting PCSK9. A fall off of the B-counts likely indicated a false positive of inhibition. Data from this procedure was reported as “P=‘numerical value’ (nanomolar)”

[2] = target: T1, PCSK9; assay: PCSK9 Alexa FRET Standard assay (displacement of AlexaFluor647-tagged cyclic peptide Reagent A); conditions: 0.5 nM PCSK9, 20 nM AF cyclic peptide Reagent A
Experimental: A solution containing 1 nM biotinylated PCSK9+2.5 nM Lance Streptavidin Europium (Strep-Eu) was made in 50 mM HEPES pH 7.4, 0.15 M NaCl, 5 mM CaCl2, 0.01% BSA, and 0.01% Surfactant P20. A separate solution containing 40 nM of the AlexaFluor tagged cyclic peptide was made in the same buffer system. An Echo was used to transfer 0.750 ul of compound to an assay plate followed by the addition of 15 ul of PCSK9+Stept-Eu and 15 ul of AF peptide. The final assay volume was 30.750 ul containing 0.5 nM PCSK9, 1.25 nM Strep-Eu, and 20 nM AF cyclic peptide. The reaction was incubated at room temperature for at least two hours prior to fluorescence measurements using an Envision Multilabel Reader. IC50 values were determined by fitting data to a sigmoidal dose-response curve using nonlinear regression. Ki was then calculated from the IC50 and the KD of AF cyclic peptide. Counts (B-counts) of the europium-labeled PCSK9 were followed to observe if compounds were […]. A fall off of the B-counts likely indicated a false positive of inhibition. Data from this procedure was reported as “A=‘numerical value’ (nanomolar)”

[3] = target: human PCSK9 / human LDLR EGFa domain interaction (Homo sapiens, UniProt Q8NBP7); assay: TR-FRET assay of inhibition of the PCSK9-LDLR protein-protein interaction; conditions: 20 nM biotinylated human PCSK9 + 20 nM his-tagged human LDLR EGFa domain, 2 hours room temperature
Sequence of human PCSK9 / human LDLR EGFa domain interaction (Q8NBP7 153-692): as above
Sequence of human PCSK9 / human LDLR EGFa domain interaction (Q8NBP7 31-152 partner limits assumed): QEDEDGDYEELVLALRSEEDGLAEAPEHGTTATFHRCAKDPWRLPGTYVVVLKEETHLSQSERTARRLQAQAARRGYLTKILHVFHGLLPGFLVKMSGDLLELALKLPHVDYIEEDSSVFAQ
Summary of the method: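 Biotinylated human PCSK9 (20 nM) and His-tagged human LDLR EGFa domain (20 nM) incubated with Ulight-streptavidin and Eu-anti-His (5 nM each), 2 h at room temperature, in HEPES pH buffer with 5 mM CaCl2. TR-FRET read-out; IC50 from 4-parameter fit of dose-response.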

Row | Structure (SMILES) | IC50 [1] [nM] | IC50 [2] [nM] | IC50 [3] [nM]
1 | CC(=O)N[C@H]1CSCc2cccc(c2)CSC[C@H](C(N)=O)NC(=O)[C@H]([C@@H](C)O)NC(=O)[C@](C)(C(C)C)NC(=O)[C@H](Cc2ccc(O)cc2)NC(=O)[C@H](C)NC(=O)[C@](C)(CO)NC(=O)[C@H](Cc2c[nH]c3ncccc23)NC(=O)[C@H]([C@@H](C)O)NC(=O)[C@@H]2CCCN2C(=O)[C@H](Cc2ccc(O)cc2)NC(=O)[C@H](C(C)(C)C)NC1=O [Compound 031] (Ac-C[Tle]YPT[Trp(7-aza)][αMeS]AY[αMeV]T[dC]-NH2; linker 1-12 via mXylylene) | 1 to 100 | 1 to 100 | –
2 | CC(C)[C@](C)(NC(=O)[C@H](Cc1ccc(O)cc1)NC(=O)[C@H](C)NC(=O)C(C)(C)NC(=O)[C@H](Cc1c[nH]c2ncccc12)NC(=O)[C@@H](NC(=O)[C@@H]1CCCN1C(=O)[C@@H]1Cc2ccc(O)c(c2)CCCC[C@H](N)C(=O)N[C@@H](C(C)(C)C)C(=O)N1)[C@@H](C)O)C(N)=O [Compound 032] | 1 to 100 | 1 to 100 | –
3 | CC(=O)N[C@H]1CSCc2cccc(c2)CSC[C@H](C(N)=O)NC(=O)[C@H]([C@@H](C)O)NC(=O)[C@](C)(C(C)C)NC(=O)[C@H](Cc2ccc(O)cc2)NC(=O)[C@H](C)NC(=O)C2(CCNCC2)NC(=O)[C@H](Cc2c[nH]c3ncccc23)NC(=O)[C@H]([C@@H](C)O)NC(=O)[C@@H]2CCCN2C(=O)[C@H](Cc2ccc(O)cc2)NC(=O)[C@H](C(C)(C)C)NC1=O [Compound 034] (Ac-C[Tle]YPT[Trp(7-aza)][Api]AY[αMeV]T[dC]-NH2; linker 1-12 via mXylylene) | 1 to 100 | 1 to 100 | –
4 | COCC1(C)NC(=O)[C@H](Cc2c[nH]c3ncccc23)NC(=O)[C@H]([C@@H](C)O)NC(=O)[C@@H]2CCCN2C(=O)[C@H](Cc2ccc(O)cc2)NC(=O)[C@H](C(C)(C)C)NC(=O)[C@@H](NC(C)=O)CSCc2cccc(c2)CSC[C@H](C(N)=O)NC(=O)[C@H]([C@@H](C)O)NC(=O)[C@](C)(C(C)C)NC(=O)[C@H](Cc2ccc(O)cc2)NC(=O)[C@H](C)NC1=O (some centres unmarked) [Compound 035] (Ac-C[Tle]YPT[Trp(7-aza)][ξαMeS](Me)AY[αMeV]T[dC]-NH2; linker 1-12 via mXylylene) | 100 to 500 | 100 to 1000 | –
5 | COCCOCC1(C)NC(=O)[C@H](Cc2c[nH]c3ncccc23)NC(=O)[C@H]([C@@H](C)O)NC(=O)[C@@H]2CCCN2C(=O)[C@H](Cc2ccc(O)cc2)NC(=O)[C@H](C(C)(C)C)NC(=O)[C@@H](NC(C)=O)CSCc2cccc(c2)CSC[C@H](C(N)=O)NC(=O)[C@H]([C@@H](C)O)NC(=O)[C@](C)(C(C)C)NC(=O)[C@H](Cc2ccc(O)cc2)NC(=O)[C@H](C)NC1=O (some centres unmarked) [Compound 036] (Ac-C[Tle]YPT[Trp(7-aza)][ξαMeS](X5)AY[αMeV]T[dC]-NH2; linker 1-12 via mXylylene) | 1 to 100 | 1 to 100 | –
6 | CCC[C@@H]1NC(=O)[C@H](Cc2c[nH]c3ncccc23)NC(=O)[C@H]([C@@H](C)O)NC(=O)[C@H](Cc2cnc[nH]2)NC(=O)[C@H](Cc2ccc(O)cc2)NC(=O)[C@H](C(C)(C)C)NC(=O)CCSCc2cccc(c2)CSC[C@@H](C(N)=O)NC(=O)[C@H]([C@@H](C)O)NC(=O)[C@H](Cc2ccc(O)cc2)NC(=O)[C@H](Cc2ccc(O)cc2)NC(=O)[C@H](CCC(=O)O)NC1=O [Compound 071] ([Mpa][Tle]YHT[Trp(7-aza)][Nva]EYYTC-NH2; linker 1-12 via mXylylene) | – | 1 to 100 | 100 to 1000
7 | CCC[C@@H]1NC(=O)[C@H](Cc2c[nH]c3ncccc23)NC(=O)[C@H]([C@@H](C)O)NC(=O)[C@H](Cc2cnc[nH]2)NC(=O)[C@H](Cc2ccc(O)cc2)NC(=O)[C@H](Cc2ccc(CN)cc2)NC(=O)CCSCc2cccc(c2)CSC[C@@H](C(N)=O)NC(=O)[C@H]([C@@H](C)O)NC(=O)[C@H](CCC)NC(=O)[C@H](Cc2ccc(O)cc2)NC(=O)[C@H](CCC(=O)O)NC1=O [Compound 086] ([Mpa][Phe(4-CH2NH2)]YHT[Trp(7-aza)][Nva]EY[Nva]TC-NH2; linker 1-12 via mXylylene) | – | 100 to 1000 | 100 to 1000
8 | CCC[C@@H]1NC(=O)[C@H](Cc2c[nH]c3ncccc23)NC(=O)[C@H]([C@@H](C)O)NC(=O)[C@H](CNC(=N)N)NC(=O)[C@H](Cc2ccc(O)cc2)NC(=O)[C@H](Cc2cc3cc(F)ccc3[nH]2)NC(=O)[C@@H](NC(=O)[C@H](Cc2ccc(NC(=N)N)cc2)NC(C)=O)CSCc2cccc(c2)CSC[C@@H](C(N)=O)NC(=O)[C@H]([C@@H](C)O)NC(=O)[C@H](CCC)NC(=O)[C@H](Cc2ccc(O)cc2)NC(=O)[C@H](CCC(=O)O)NC1=O [Compound 091] (Ac-[Phe(4-guanidino)]C[X4]Y[Agp]T[Trp(7-aza)][Nva]EY[Nva]TC-NH2; linker 2-13 via mXylylene) | – | 1 to 100 | 100 to 1000
9 | CCC[C@@H]1NC(=O)[C@H](Cc2c[nH]c3ncccc23)NC(=O)[C@H]([C@@H](C)O)NC(=O)[C@H](Cc2cnc[nH]2)NC(=O)[C@H](Cc2ccc(O)cc2)NC(=O)[C@H]([C@@H](C)c2c[nH]c3ccccc23)NC(=O)CCSCc2cccc(c2)CSC[C@@H](C(N)=O)NC(=O)[C@H]([C@@H](C)O)NC(=O)[C@H](CCC)NC(=O)[C@H](Cc2ccc(O)cc2)NC(=O)[C@H](CCC(=O)O)NC1=O [Compound 097] ([Mpa][Trp(βS-Me)]YHT[Trp(7-aza)][Nva]EY[Nva]TC-NH2; linker 1-12 via mXylylene) | – | 1 to 100 | 1 to 100
10 | CCC[C@@H]1NC(=O)[C@H](Cc2c[nH]c3ncccc23)NC(=O)[C@H]([C@@H](C)O)NC(=O)[C@H](Cc2cnc[nH]2)NC(=O)[C@H](Cc2ccc(O)cc2)NC(=O)[C@H](C(C)(C)C)NC(=O)[C@@H](NC(=O)[C@H](Cc2ccc(CNC(=N)N)cc2)NC(C)=O)CSCc2cccc(c2)CSC[C@@H](C(N)=O)NC(=O)[C@H]([C@@H](C)O)NC(=O)[C@H](CCC)NC(=O)[C@H](Cc2ccc(O)cc2)NC(=O)[C@H](CCC(=O)O)NC1=O [Compound 098] (Ac-[X3]C[Tle]YHT[Trp(7-aza)][Nva]EY[Nva]TC-NH2; linker 2-13 via mXylylene) | – | 100 to 1000 | 21000 to 50000
11 | CCC[C@@H]1NC(=O)[C@H](Cc2ccc(O)cc2)NC(=O)[C@H](C)NC(=O)[C@]2(C)CC/C=C\CCCC[C@](C)(NC1=O)C(=O)N[C@H](C(N)=O)CCCCNC(=O)CCC[C@H](NC(C)=O)C(=O)N[C@@H](C(C)(C)C)C(=O)N[C@@H](Cc1ccc(O)cc1)C(=O)N1CCC[C@H]1C(=O)N[C@@H]([C@@H](C)O)C(=O)N[C@@H](Cc1c[nH]c3ncccc13)C(=O)N2 [Compound 104] (Ac-[Aad][Tle]YPT[Trp(7-aza)][αMeNva(5-ylidene)]AY[Nva][X1]K-NH2; lactam 1-12; staple (Z) 7-11) | – | 100 to 1000 | 1000 to 12100
12 | CCC[C@@H]1NC(=O)[C@H](Cc2c[nH]c3ncccc23)NC(=O)[C@H]([C@@H](C)O)NC(=O)[C@@H]2CCCCNC(=O)CC[C@H](NC1=O)C(=O)N[C@@H](Cc1ccc(O)cc1)C(=O)N[C@@H](C1CCCCC1)C(=O)N[C@@H]([C@@H](C)O)C(=O)N[C@@H](C(N)=O)CSCc1cccc(c1)CSCCC(=O)N[C@@H](C(C)(C)C)C(=O)N[C@@H](Cc1ccc(O)cc1)C(=O)N2 [Compound 107] ([Mpa][Tle]YKT[Trp(7-aza)][Nva]EY[Chg]T[dC]-NH2; linker 1-12 via mXylylene; lactam 4-8) | – | 1 to 100 | 1 to 100
13 | CCC[C@@H]1NC(=O)[C@H](Cc2ccc(O)cc2)NC(=O)[C@@H]2CCC(=O)NCCCC[C@H](NC(=O)[C@H](Cc3ccc(O)cc3)NC(=O)[C@H](C(C)(C)C)NC(=O)CCSCc3cccc(c3)CSC[C@@H](C(N)=O)NC(=O)[C@H]([C@@H](C)O)NC1=O)C(=O)N[C@@H]([C@@H](C)O)C(=O)N[C@@H](Cc1c[nH]c3ncccc13)C(=O)NC(C)(C)C(=O)N2 [Compound 110] ([Mpa][Tle]YKT[Trp(7-aza)][Aib]EY[Nva]TC-NH2; linker 1-12 via mXylylene; lactam 4-8) | – | 1 to 100 | 1 to 100
